According to patent publication US9375436B2, “Androgen treatment in females” (priority 2004, dated 2016):
Several values for one entry are separate records, joined by “and”; a condition that tells them apart may be missing. Identical values can stand only once.

What was measured:
[1] = tested on: person with evidence of decreased ovarian reserve; settings: human, in vivo
women with DOR = assay: Matched case control study of embryo aneuploidy by preimplantation genetic screening (Example 11); format: in vivo, human
Protocol: In a 1:2, matched case control study, 22 consecutive women with DOR, supplemented with DHEA, underwent preimplantation genetic screening (PGS) of embryos during in vitro fertilization (IVF) cycles. Each was matched by patient age and time period of IVF with two control IVF cycles without DHEA supplementation (n=44). PGS was performed for chromosomes X, Y, 13, 16, 18, 21 and 22, and involved determination of numbers and percentages of aneuploid embryos.
We retrieved from our center's computerized research data bank a total of 22 consecutive DOR patients who underwent IVF/PGS while on DHEA supplementation. Only first IVF cycles were analyzed. These cycles were matched with the two control cycles not on DHEA supplementation, based on patient age and year of treatment (44 controls).
Normal age-specific hormone levels were defined by 95% confidence intervals at all ages, as previously reported. Since patients with DOR were, thus, uniformly diagnosed before IVF cycle protocols were determined, they were all supplemented with DHEA, and stimulation adjustments were made.
During the study period all DOR patients at our center routinely received DHEA supplementation. Those not receiving DHEA, therefore, by definition, had age-appropriate ovarian reserve, confirmed by normal anti-Müllerian hormone (AMH), follicle stimulating hormone (FSH) baseline levels and estradiol. Patients receiving DHEA supplementation were prescribed 25 mg of micronized, pharmaceutical grade DHEA, T.I.D, for at least four weeks prior to IVF cycle start. Short-term supplementation was defined as 4 to 12 weeks of DHEA prior to IVF and PGS; supplementation beyond that was considered long-term supplementation.
Patients with premature DOR, or if over 40 years of age, in first treatment cycles universally receive a so-called microdose gonadotropin releasing hormone agonist (GnRH-a) ovarian stimulation protocol, characterized by leuprolide acetate (50 μg/0.1 mL, b.i.d.; Lupron®, Abbot Pharmaceuticals, North Chicago, Ill.) and ovarian stimulation with follicle stimulating hormone (FSH, 300 IU-450 IU daily) and human menopausal gonadotropins (hMG, 150 IU). If under age 40 with normal ovarian reserve patients receive down regulation with full dose GnRH-a (1.0 mg/0.1 mL) and ovarian stimulation with up to 300 IU of gonadotropins, usually half as FSH and half as hMG. Higher luteinizing hormone (LH) contributions to ovarian stimulation, if anything, reduce embryo aneuploidy. The small difference in ovarian stimulation protocols between women with DOR and controls, therefore, potentially biases study outcome towards lower aneuploidy rates in the control population, which received a proportionally higher LH contributions to ovarian stimulation.
PGS was performed, utilizing fluorescence in situ hybridization (FISH) in routine fashion, utilizing probes for seven chromosomes (X, Y, 13, 16, 18, 21 and 22) on day three after fertilization, when embryos reached six to eight cell stages. This restricted chromosome panel is currently routinely utilized for PGS.
A general linear model was constructed to assess DHEA effects on percent aneuploidy after adjustment for age, indications for PGS, stimulation protocol and total gonadotropin dosage utilized. The latter adjustment was made as a surrogate for potential physician biases in how individual patients were stimulated, and potential effects such stimulation biases may have on ploidy.

[2] = tested on: women waiting to go into an IVF cycle; assay: Spontaneous conceptions in women on DHEA waiting to go into IVF; format: in vivo, human
Protocol: Additionally, with DHEA treatment, there may be an unexpectedly large number of spontaneous conceptions in women waiting to go into an IVF cycle. DHEA treatment includes administering a dose of between about 50 mg/day and about 100 mg/day, preferably between about 60 mg/day and about 80 mg/day, and in one study about 75 mg/day to a human. Particularly, the DHEA treatment may be administered to a premenopausal person with diminished ovarian function. DHEA may have an effect after about 4 consecutive weeks. However, DHEA has a more significant effect after about 8 weeks or about 2 months of administration, but its effect may continue to increase to about four months, and further may continue past four months of use. Specifically, DHEA treatment has a statistically significant effect after about at least 16 weeks or about at least 4 months of administration.
The DHEA treatment may be at least about 2 weeks before spontaneous conception occurs. In the population of women who are waiting to go into IVF, the spontaneous pregnancy rate is a fraction of about 1% per month. However, in the population of women who have been on DHEA treatment, there were 13 spontaneous pregnancies out of 60 women. As such, DHEA treatment increases spontaneous pregnancies in one study at least about 21 fold. […]

[3] = tested on: proven poor responders to ovarian stimulation with gonadotropins; settings: 80 mg micronized DHEA for two months; five poor responders, six IVF cycles; cited from earlier work
[4] = DHEA patients n=22, PGS by FISH, seven chromosomes

SMILES: C[C@]12CC[C@H](O)CC1=CC[C@@H]1[C@@H]2CC[C@]2(C)C(=O)CC[C@@H]12 [DHEA, Dehydroepiandrosterone]
- (log) peak E2 increase [1]: 0.47±0.06
- aneuploid embryos amongst 10 embryos (PGD) [1]: nine
- average embryo cell count [1]: 6.83±1.37 and 7.2±1.15
- cryopreservable embryo yield increase [1]: 1.4±0.14 embryos per cycle
- cryopreservable embryos [1]: 11
- embryo morphology [1]: 3.6±0.5 and 3.7±0.5
- embryos in a cycle [1]: 9 and 10 and 11
- embryos of high enough quality to undergo cryopreservation [1]: 49
- embryos produced [1]: 16
- oocyte yield increase [1]: 2.5±0.34 oocytes per cycle
- oocytes in a cycle [1]: 13 and 16 and 19
- oocytes retrieved [1]: 17
- total viable embryos cryopreserved [1]: 50
- oocytes produced ([1]; po): 19
- Embryo Grades (mean ± SD) (women with DOR; DHEA patients n=22): 3.4±0.4
- Embryos Cryopreserved (n, mean ± SD) (women with DOR; DHEA patients n=22): 0.7±1.6
- Embryos Transferred (n, mean ± SD) (women with DOR; DHEA patients n=22): 1.4±0.9
- Embryos Undergoing PGS (n, mean ± SD) (women with DOR; DHEA patients n=22): 7.3±3.9
- Oocytes retrieved (n, mean ± SD) (women with DOR; DHEA patients n=22, 25 mg T.I.D. at least four weeks): 9.6±6.2
- aneuploid embryos (absolute number) (women with DOR; [4]): 2.8±2.5
- percentages of aneuploidy (women with DOR; [4]): 38.2±24.4
- reduction in aneuploidy (women with DOR; short term supplementation (4-12 weeks), 95% CI -2.871-46.031): 21.6%
- increase of spontaneous pregnancies ([2]; versus fraction of about 1% per month in women waiting for IVF): at least 21 fold
- spontaneous pregnancies out of 60 women ([2]; women on DHEA treatment): 13
- response to ovarian stimulation compared with prior unsupplemented cycle [3]: improved responsiveness
